We go through 15 compounds from US20250059171A1 (Hoffmann-La Roche Inc., priority 2021, published 2025).

One may read the IC50 as the point on the concentration scale where inhibition reaches its midpoint.

The target in one assay is SARS-CoV 3CLpro (Severe acute respiratory syndrome coronavirus, UniProt P0C6X7). As to the kind of experiment: biochemical.
The target of another assay is HCoV-229E 3CLpro (Human coronavirus 229E, UniProt P0C6X1). As to the kind of experiment: HCoV-229E 3CLpro inhibition assay (FRET). It is filed as biochemical.
Sequence of HCoV-229E 3CLpro (P0C6X1 2966-3267): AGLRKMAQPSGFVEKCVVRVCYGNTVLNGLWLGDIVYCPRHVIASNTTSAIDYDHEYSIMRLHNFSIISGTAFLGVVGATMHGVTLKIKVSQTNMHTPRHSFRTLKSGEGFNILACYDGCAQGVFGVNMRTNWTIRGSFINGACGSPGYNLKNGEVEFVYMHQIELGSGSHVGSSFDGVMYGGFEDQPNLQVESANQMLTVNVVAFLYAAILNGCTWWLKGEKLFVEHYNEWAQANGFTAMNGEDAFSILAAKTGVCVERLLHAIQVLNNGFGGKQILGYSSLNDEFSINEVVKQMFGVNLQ
For the next assay, the target named is MERS-CoV 3CLpro (Middle East respiratory syndrome-related coronavirus, UniProt K9N7C7). Nature of the assay: biochemical.
Sequence of MERS-CoV 3CLpro (K9N7C7 3248-3553): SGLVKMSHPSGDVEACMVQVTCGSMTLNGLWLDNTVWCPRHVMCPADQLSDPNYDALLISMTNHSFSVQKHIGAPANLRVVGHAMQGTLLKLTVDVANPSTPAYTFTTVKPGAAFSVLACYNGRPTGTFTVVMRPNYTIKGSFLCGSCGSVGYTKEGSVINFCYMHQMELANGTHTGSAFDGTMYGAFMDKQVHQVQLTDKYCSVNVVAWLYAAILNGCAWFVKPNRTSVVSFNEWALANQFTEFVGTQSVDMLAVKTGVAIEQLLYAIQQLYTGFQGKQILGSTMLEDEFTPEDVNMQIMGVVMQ
The target of a further assay is SARS-CoV-2 3CLpro (Severe acute respiratory syndrome coronavirus 2, UniProt P0DTD1). Nature of the assay: biochemical.

As to `CC[C@@H](C)[C@H](NC(=O)C1(F)CC1)C(=O)N1C[C@H]2[C@@H]([C@H]1C(=O)NN(C[C@@H]1CCNC1=O)C(=O)[C@@H](F)Cl)C2(C)C` [Example 121, N-[(1S,2R)-1-[(1R,2S,5S)-2-[[[(2S)-2-chloro-2-fluoro-acetyl]-[[(3S)-2-oxopyrrolidin-3-yl]methyl]amino]carbamoyl]-6,6-dimethyl-3-azabicyclo[3.1.0]hexane-3-carbonyl]-2-methyl-butyl]-1-fluoro-cyclopropanecarboxamide], the IC50 on SARS-CoV 3CLpro came to 50 nM; against HCoV-229E 3CLpro it was 43 nM; against MERS-CoV 3CLpro, 131 nM; on SARS-CoV-2 3CLpro it was 26 nM.
In the same order, the values of `CCC[C@H](NC(=O)C(F)(F)F)C(=O)N1C[C@@H]2CCC[C@@H]2[C@H]1C(=O)NN(C[C@@H]1CCNC1=O)C(=O)[C@H](F)Cl` [Example 78, N-[(1S)-1-[(3S,3aS,6aR)-3-[[[(2R)-2-chloro-2-fluoro-acetyl]-[[(3S)-2-oxopyrrolidin-3-yl]methyl]amino]carbamoyl]-3,3a,4,5,6,6a-hexahydro-1H-cyclopenta[c]pyrrole-2-carbonyl]butyl]-2,2,2-trifluoro-acetamide] are 10 nM, 23 nM, 57 nM and 9 nM.
With `CC[C@H](C)[C@H](NC(=O)CC(F)(F)F)C(=O)N1C[C@@H]2CCC[C@@H]2[C@H]1C(=O)NN(C[C@@H]1CCNC1=O)C(=O)[C@H](F)Cl` [Example 45, N-[(1S,2S)-1-[(3S,3aS,6aR)-3-[[[(2R)-2-chloro-2-fluoro-acetyl]-[[(3S)-2-oxopyrrolidin-3-yl]methyl]amino]carbamoyl]-3,3a,4,5,6,6a-hexahydro-1H-cyclopenta[c]pyrrole-2-carbonyl]-2-methyl-butyl]-3,3,3-trifluoro-propanamide], the IC50 is 10 nM on SARS-CoV 3CLpro, 35 nM against HCoV-229E 3CLpro, 104 nM at MERS-CoV 3CLpro and 19 nM at SARS-CoV-2 3CLpro.
As for `CC(C)(C)[C@H](Nc1ncncc1F)C(=O)N1C[C@@H]2CCC[C@@H]2[C@H]1C(=O)NN(C[C@@H]1CCNC1=O)C(=O)[C@H](F)Cl` [Example 183], the concentration for half-maximal inhibition (IC50) was found to be 16 nM against SARS-CoV 3CLpro, 59 nM against HCoV-229E 3CLpro, 174 nM against MERS-CoV 3CLpro and 11 nM on SARS-CoV-2 3CLpro.
Regarding `CC1(C)[C@@H]2[C@@H](C(=O)NN(C[C@@H]3CCNC3=O)C(=O)[C@H](F)Cl)N(C(=O)/C=C/c3cc(C(F)(F)F)cc(C(F)(F)F)c3)C[C@@H]21` [Example 180, (1R,2S,5S)-3-[(E)-3-[3,5-bis(trifluoromethyl)phenyl]prop-2-enoyl]-N′-[(2R)-2-chloro-2-fluoro-acetyl]-6,6-dimethyl-N′—[[(3S)-2-oxopyrrolidin-3-yl]methyl]-3-azabicyclo[3.1.0]hexane-2-carbohydrazide], the IC50 at SARS-CoV 3CLpro was 786 nM; at HCoV-229E 3CLpro it was 241 nM; against MERS-CoV 3CLpro, 657 nM; on SARS-CoV-2 3CLpro it was 491 nM.
Taken in the same sequence, the figures for `CCC(C)(C)[C@H](NC(=O)C1(F)CC1)C(=O)N1C[C@H]2[C@@H]([C@H]1C(=O)NN(C[C@@H]1CCNC1=O)C(=O)[C@@H](F)Cl)C2(C)C` [Example 145, N-[(1S)-1-[(1R,2S,5S)-2-[[[(2S)-2-chloro-2-fluoro-acetyl]-[[(3S)-2-oxopyrrolidin-3-yl]methyl]amino]carbamoyl]-6,6-dimethyl-3-azabicyclo[3.1.0]hexane-3-carbonyl]-2,2-dimethyl-butyl]-1-fluoro-cyclopropanecarboxamide] were 27 nM, 77 nM, 152 nM and 18 nM.
For the compound `CC[C@H](C)[C@H](NC(=O)C(F)(F)F)C(=O)N1C[C@@H]2CCC[C@@H]2[C@H]1C(=O)NN(C[C@@H]1CCNC1=O)C(=O)[C@H](F)Cl` [Example 48, N-[(1S,2S)-1-[(3S,3aS,6aR)-3-[[[(2R)-2-chloro-2-fluoro-acetyl]-[[(3S)-2-oxopyrrolidin-3-yl]methyl]amino]carbamoyl]-3,3a,4,5,6,6a-hexahydro-1H-cyclopenta[c]pyrrole-2-carbonyl]-2-methyl-butyl]-2,2,2-trifluoro-acetamide], the IC50 on SARS-CoV 3CLpro stood at 12 nM; against HCoV-229E 3CLpro, 22 nM; at MERS-CoV 3CLpro, 56 nM; on SARS-CoV-2 3CLpro, 12 nM.
With `CC[C@H](C)[C@H](NC(=O)C1CC1(F)F)C(=O)N1C[C@@H]2CCC[C@@H]2[C@H]1C(=O)NN(C[C@@H]1CCNC1=O)C(=O)[C@H](F)Cl` (mixture of isomers) [Example 41, Rac-2,2-difluoro-N-[(1S,2S)-2-methyl-1-[(3S,3aS,6aR)-3-[[[(2R)-2-chloro-2-fluoro-acetyl]-[[(3S)-2-oxopyrrolidin-3-yl]methyl]amino]carbamoyl]-3,3a,4,5,6,6a-hexahydro-1H-cyclopenta[c]pyrrole-2-carbonyl]butyl]cyclopropanecarboxamide], the half-inhibitory concentration (IC50) is 33 nM against SARS-CoV 3CLpro, 68 nM against HCoV-229E 3CLpro, 221 nM against MERS-CoV 3CLpro and 7 nM against SARS-CoV-2 3CLpro.
Taken in the same sequence, the figures for `CCC(C)(C)[C@H](NC(=O)C1CC1)C(=O)N1C[C@@H]2CCC[C@@H]2[C@H]1C(=O)NN(C[C@H]1CCCNC1=O)C(=O)[C@H](F)Cl` [Example 167b, N-[(1S)-1-[(3S,3aS,6aR)-3-[[[(2R)-2-chloro-2-fluoro-acetyl]-[[(3R)-2-oxo-3-piperidyl]methyl]amino]carbamoyl]-3,3a,4,5,6,6a-hexahydro-1H-cyclopenta[c]pyrrole-2-carbonyl]-2,2-dimethyl-butyl]cyclopropanecarboxamide] were 41 nM, 210 nM, 1630 nM and 19 nM.
Taken in the same sequence, the figures for `CCC(C)(C)[C@H](NC(=O)[C@@H]1CC1(F)F)C(=O)N1C[C@@H]2CCC[C@@H]2[C@H]1C(=O)NN(C[C@@H]1CCNC1=O)C(=O)[C@H](F)Cl` [Example 150, (1S)—N-[(1S)-1-[(3S,3aS,6aR)-3-[[[(2R)-2-chloro-2-fluoro-acetyl]-[[(3S)-2-oxopyrrolidin-3-yl]methyl]amino]carbamoyl]-3,3a,4,5,6,6a-hexahydro-1H-cyclopenta[c]pyrrole-2-carbonyl]-2,2-dimethyl-butyl]-2,2-difluoro-cyclopropanecarboxamide] were 16 nM, 33 nM, 63 nM and 11 nM.
Taken in the same sequence, the figures for `CC(C)(C)[C@H](NC(=O)C(F)(F)C(F)(F)F)C(=O)N1C[C@@H]2CCC[C@@H]2[C@H]1C(=O)NN(C[C@@H]1CCNC1=O)C(=O)[C@H](F)Cl` [Example 71, N-[(1S)-1-[(3S,3aS,6aR)-3-[[[(2R)-2-chloro-2-fluoro-acetyl]-[[(3S)-2-oxopyrrolidin-3-yl]methyl]amino]carbamoyl]-3,3a,4,5,6,6a-hexahydro-1H-cyclopenta[c]pyrrole-2-carbonyl]-2,2-dimethyl-propyl]-2,2,3,3,3-pentafluoro-propanamide] were 10 nM, 19 nM, 41 nM and 7 nM.
`CCC(C)(C)[C@H](NC(=O)C1CC1)C(=O)N1C[C@H]2[C@@H]([C@H]1C(=O)NN(C[C@@H]1CCNC1=O)C(=O)[C@@H](F)Cl)C2(C)C` [Example 147, N-[(1S)-1-[(1R,2S,5S)-2-[[[(2S)-2-chloro-2-fluoro-acetyl]-[[(3S)-2-oxopyrrolidin-3-yl]methyl]amino]carbamoyl]-6,6-dimethyl-3-azabicyclo[3.1.0]hexane-3-carbonyl]-2,2-dimethyl-butyl]cyclopropanecarboxamide]: the IC50 at SARS-CoV 3CLpro was determined as 16 nM; on HCoV-229E 3CLpro, 40 nM; against MERS-CoV 3CLpro it was 89 nM; on SARS-CoV-2 3CLpro it was 12 nM.
For the compound `CC(F)(F)C(=O)N[C@H](C(=O)N1C[C@H]2[C@@H]([C@H]1C(=O)NN(C[C@@H]1CCNC1=O)C(=O)[C@@H](F)Cl)C2(C)C)C(C)(C)C` [Example 85, N-[(1S)-1-[(1R,2S,5S)-2-[[[(2S)-2-chloro-2-fluoro-acetyl]-[[(3S)-2-oxopyrrolidin-3-yl]methyl]amino]carbamoyl]-6,6-dimethyl-3-azabicyclo[3.1.0]hexane-3-carbonyl]-2,2-dimethyl-propyl]-2,2-difluoro-propanamide], the half-inhibitory concentration (IC50) against SARS-CoV 3CLpro was 12 nM; at HCoV-229E 3CLpro, 21 nM; against MERS-CoV 3CLpro, 69 nM; on SARS-CoV-2 3CLpro, 12 nM.
Regarding `CC[C@@H](C)[C@H](NC(=O)C1CC1)C(=O)N1C[C@H]2[C@@H]([C@H]1C(=O)NN(C[C@@H]1CCNC1=O)C(=O)[C@H](F)Cl)C2(C)C` [Example 118, N-[(1S,2R)-1-[(1R,2S,5S)-2-[[[(2R)-2-chloro-2-fluoro-acetyl]-[[(3S)-2-oxopyrrolidin-3-yl]methyl]amino]carbamoyl]-6,6-dimethyl-3-azabicyclo[3.1.0]hexane-3-carbonyl]-2-methyl-butyl]cyclopropanecarboxamide], the IC50 is 18 nM against SARS-CoV 3CLpro, 27 nM on HCoV-229E 3CLpro, 109 nM against MERS-CoV 3CLpro and 13 nM on SARS-CoV-2 3CLpro.
Taken in the same sequence, the figures for `CC[C@H](C)[C@H](NC(=O)C1(F)CC1)C(=O)N1C[C@H]2[C@@H]([C@H]1C(=O)NN(C[C@@H]1CCNC1=O)C(=O)[C@@H](F)Cl)C2(C)C` [Example 106, N-[(1S,2S)-1-[(1R,2S,5S)-2-[[[(2S)-2-chloro-2-fluoro-acetyl]-[[(3S)-2-oxopyrrolidin-3-yl]methyl]amino]carbamoyl]-6,6-dimethyl-3-azabicyclo[3.1.0]hexane-3-carbonyl]-2-methyl-butyl]-1-fluoro-cyclopropanecarboxamide] were 57 nM, 66 nM, 179 nM and 33 nM.
